Starred links: 1 amine or outer side, 2 acyl side, 3 side chain; linkers in the order of their positions; H or OH if unused. Positions of bridges follow the written chain, without caps; N, C: chain ends. Non-standard residues stand in square brackets, D forms with d. Residues, ends and D or L forms follow the SMILES beside them. *: point of attachment. Orn(4R-OH,5R-OCH2CH2NMe3+) = C[N+](C)(C)CCO[C@@H](N[*:3])[C@H](O)C[C@H](N[*:1])C(=O)[*:2]; pTerphenylCO(4''-OnC5H11) = CCCCCOc1ccc(-c2ccc(-c3ccc(C(=O)*)cc3)cc2)cc1; hTyr(3S-OH,4S-OH) = N[C@H](C(=O)O)[C@H](O)[C@@H](O)c1ccc(O)cc1; Pro(3S-OH,4S-Me) = C[C@H]1CN[C@H](C(=O)O)[C@H]1O; Hyp = O=C(O)[C@@H]1C[C@@H](O)CN1
Key:
Format in all cases: physicochemical
[1] = Dynamic vapour sorption experiment; conditions: for weight gain during the sorption isotherm: from 40-80% RH, 10% RH increments
Method: Further weight loss above 160° C. may correspond with the onset of decomposition. A dynamic vapour sorption experiment of Type B material was performed. The sample was subjected to a step profile from 40-90% RH at 10% increments, followed by desorption from 90-0% RH at 10% increments and then adsorption from 0-40% RH at 10% increments.
A dynamic vapour sorption experiment of Type E material was performed. The sample was subjected to a step profile from 40 to 90% RH at 10% increments, followed by desorption from 90 to 0% RH at 10% increments and then adsorption from 0 to 40% RH at 10% increments. […] There was a larger weight gain above 80% RH.

[2] = Solid form stability of polymorph on drying or storage, analysed by XRPD
Method: Compound 1 acetate Type E (1 g) was added to a beaker and dried in the vacuum oven at 40° C. overnight (not more than 18 hours). The solid was analyzed by XRPD analysis and shown to be Type B (FIG. 6).
Four samples of compound 1 acetate Type E were added to vials and placed in a desiccator, under vacuum, for up to 7 days.

[3] = Slurrying in EtOH at 40° C., form transformation by XRPD; conditions: after 3 days
[4] = Form stability as a function of ethanol activity (aEtOH)
Method: Compound 1 acetate and a solvent or solvent mixture were added to a vial and stirred at ambient temperature overnight to form a saturated suspension. Ethanol (EtOH) activity (aEtOH) of the solvent or solvent mixture was calculated using UNIFAC software. A further aliquot of the solvent or solvent mixture was added to the vial if the mixture was very thick. If all solids had dissolved, further amounts of compound 1 acetate were added and the mixture was stirred overnight. The slurry was then seeded with compound 1 acetate and compound 1 acetate-EtOH solvate and allowed to stir at ambient temperature for several days before isolation of solids and analysis by XRPD.
Compound 1 acetate Type E is a metastable solvate and converts to compound 1 acetate Type B on drying or storage at low ethanol activity (aEtOH<0.2). Type E was stable at an EtOH activity of >0.8.

[5] = Ambient conditions (44-63% RH, 20-25° C.) for 5 days
[6] = ambient temperature in the desiccator

Compound | weight gain during the sorption isotherm [1] [%] | XRPD Result [2, 5] | form transformation to Type A (XRPD) [3] | weight loss during the equilibration hold ([1]; equilibration hold at 40% RH) [%] | EtOH activity at which the form was stable [4] | ethanol activity at which the form converts to Type B on storage ([4]; low ethanol activity) | XRPD Result ([2]; Desiccator under vacuum at ambient conditions for 4 hours) | XRPD Result ([2]; Desiccator under vacuum at ambient conditions for 1 day) | XRPD Result ([2]; Desiccator under vacuum at ambient conditions for 5 days) | XRPD Result ([2]; Desiccator under vacuum at ambient conditions for 7 days) | time for which the form was stable [2, 6] | time to complete conversion to Type B [2, 6] [days] | XRPD Result after drying ([2]; vacuum oven at 40° C. overnight (not more than 18 hours))
CCCCCOc1ccc(-c2ccc(-c3ccc(C(=O)N[C@H]4C[C@@H](O)[C@@H](OCC[N+](C)(C)C)NC(=O)[C@@H]5[C@@H](O)[C@@H](C)CN5C(=O)[C@H]([C@@H](C)O)NC(=O)[C@H]([C@H](O)[C@@H](O)c5ccc(O)cc5)NC(=O)[C@@H]5C[C@@H](O)CN5C(=O)[C@H]([C@@H](C)O)NC4=O)cc3)cc2)cc1 [Type B] ({pTerphenylCO(4''-OnC5H11)}-[Orn(4R-OH,5R-OCH2CH2NMe3+)]T[Hyp][hTyr(3S-OH,4S-OH)]T[Pro(3S-OH,4S-Me)]; lactam 1-C) | 6 | Type B | no form transformation | – | – | – | – | – | – | – | – | – | –
CCCCCOc1ccc(-c2ccc(-c3ccc(C(=O)N[C@H]4C[C@@H](O)[C@@H](OCC[N+](C)(C)C)NC(=O)[C@@H]5[C@@H](O)[C@@H](C)CN5C(=O)[C@H]([C@@H](C)O)NC(=O)[C@H]([C@H](O)[C@@H](O)c5ccc(O)cc5)NC(=O)[C@@H]5C[C@@H](O)CN5C(=O)[C@H]([C@@H](C)O)NC4=O)cc3)cc2)cc1 [Type E] ({pTerphenylCO(4''-OnC5H11)}-[Orn(4R-OH,5R-OCH2CH2NMe3+)]T[Hyp][hTyr(3S-OH,4S-OH)]T[Pro(3S-OH,4S-Me)]; lactam 1-C) | 5 | Type B | – | ~18.5 | > 0.8 | < 0.2 | Type E | Type B + Type E | Type B | Type B | up to 4 hours | ≤ 5 | Type B
